Data on one compound can be found in ChEMBL document CHEMBL4725478, “Spiroindoline-Capped Selective HDAC6 Inhibitors: Design, Synthesis, Structural Analysis, and Biological Evaluation” (ACS Med Chem Lett, 2020).

Activity calls are given as the source filed them. The rule behind the calls is not given here.

The subject of series [1] is KYSE-520 cell line. Kind of series: Antiproliferative activity against human KYSE520 cells assessed as reduction in cell viability measured after 48 hrs by alamar blue dye based spectrofluorometry. The series is classed as functional. Particulars: KYSE-520, 48 h. In general terms: The colour change of resazurin is a common sign of viable cells or microbes.
Series [2] can be described thus: Mutagenicity in Salmonella typhimurium TA98 at 8 to 160 uM measured after 90 mins in presence of S9 fraction by Ames test. The series is classed as toxicity, subcellular. Conditions: salmonella enterica subsp. enterica serovar typhimurium, s9, 1.5 h, dose 8-160 µM. A general note: In the Ames test, an excess of revertant colonies over the control signals mutagenicity.

Another series concerns the target Histone deacetylase 1 (Homo sapiens, UniProt Q13547). Nature of the series: Inhibition of full length C-terminal His/FLAG-tagged human HDAC1 expressed in baculovirus expression system using ZMAL as substrate incubated for 90 mins by fluorescence assay.
Series [3] has as its system NB-4. Kind of series: Cell cycle arrest in human NB-4 cells at 5 to 10 uM measured after 24 to 48 hrs by propidium iodide staining based flow cytometry. The series is classed as functional. Conditions: dose microM 5-10, time hrs 24-48. A general note: A flow cytometer gives signals particle by particle.
The species named for a further series is Homo sapiens. Nature of the series: Selectivity ratio of IC50 for full length C-terminal His/FLAG-tagged human HDAC1 expressed in baculovirus expression system to IC50 full length N-terminal GST-tagged human HDAC6 expressed in baculovirus expression system.
Series [4] is described as follows: Mutagenicity in Salmonella typhimurium TA100 at 8 uM measured after 90 mins in absence of S9 fraction by Ames test. Particulars: salmonella enterica subsp. enterica serovar typhimurium, s9, 1.5 h. The series is classed as toxicity.
The nature of series [5]: Mutagenicity in Salmonella typhimurium TA98 at 8 to 160 uM measured after 90 mins in absence of S9 fraction by Ames test. The series is classed as toxicity. Conditions: salmonella enterica subsp. enterica serovar typhimurium, s9, 1.5 h, dose 8-160 µM.
For series [6], the system named is KYSE-520 cell line. Kind of series: Induction of apoptosis human KYSE520 cells at 30 to 100 uM measured after 48 hrs by Annexin-V/propidium iodide staining based assay. The series is classed as functional, cell-based. Particulars: dose microM 30-100, time 48.0 hrs.
Series [7] can be described thus: Antiproliferative activity against human TR-146 cells assessed as reduction in cell viability measured after 48 hrs by alamar blue dye based spectrofluorometry. The series is classed as functional. Particulars: TR146, 48 h.
A further series deals with OE33. Kind of series: Antiproliferative activity against human OE33 cells assessed as reduction in cell viability measured after 72 hrs by MTT assay. The series is classed as functional, cell-based. Conditions: OE33, 72 h.
Series [8] can be described thus: Cytotoxicity against mouse NIH3T3 cells assessed as reduction in cell viability measured after 24 hrs by neutral red uptake assay. The series is classed as cell-based. Conditions: read-out: TC50.
Series [9] deals with NB-4. Nature of the series: Induction of apoptosis in human NB-4 cells assessed as increase in cleaved PARP expression at 10 uM measured after 24 to 48 hrs by Western blot analysis. The series is classed as functional, cell-based. Particulars: time hrs 24-48.
The subject of another series is U-937. Nature of the series: Cell cycle arrest in human U-937 cells assessed as reduction in accumulation at S-phase at 10 uM measured after 24 to 48 hrs by propidium iodide staining based flow cytometry. The series is classed as functional. Particulars: time hrs 24-48.
Series [10] is described as follows: Mutagenicity in Salmonella typhimurium TA100 at 8 uM measured after 90 mins in presence of S9 fraction by Ames test. The series is classed as toxicity, subcellular. Particulars: salmonella enterica subsp. enterica serovar typhimurium, s9, 1.5 h.
For another series, the system named is Ca9-22. Kind of series: Antiproliferative activity against human Ca9-22 cells assessed as reduction in cell viability measured after 48 hrs by alamar blue dye based spectrofluorometry. The series is classed as functional. Conditions: Ca9-22, 48 h.
For series [11], the target named is T1, Protein deacetylase HDAC6 (Homo sapiens, UniProt Q9UBN7).
T1 sequence (Q9UBN7 whole entry): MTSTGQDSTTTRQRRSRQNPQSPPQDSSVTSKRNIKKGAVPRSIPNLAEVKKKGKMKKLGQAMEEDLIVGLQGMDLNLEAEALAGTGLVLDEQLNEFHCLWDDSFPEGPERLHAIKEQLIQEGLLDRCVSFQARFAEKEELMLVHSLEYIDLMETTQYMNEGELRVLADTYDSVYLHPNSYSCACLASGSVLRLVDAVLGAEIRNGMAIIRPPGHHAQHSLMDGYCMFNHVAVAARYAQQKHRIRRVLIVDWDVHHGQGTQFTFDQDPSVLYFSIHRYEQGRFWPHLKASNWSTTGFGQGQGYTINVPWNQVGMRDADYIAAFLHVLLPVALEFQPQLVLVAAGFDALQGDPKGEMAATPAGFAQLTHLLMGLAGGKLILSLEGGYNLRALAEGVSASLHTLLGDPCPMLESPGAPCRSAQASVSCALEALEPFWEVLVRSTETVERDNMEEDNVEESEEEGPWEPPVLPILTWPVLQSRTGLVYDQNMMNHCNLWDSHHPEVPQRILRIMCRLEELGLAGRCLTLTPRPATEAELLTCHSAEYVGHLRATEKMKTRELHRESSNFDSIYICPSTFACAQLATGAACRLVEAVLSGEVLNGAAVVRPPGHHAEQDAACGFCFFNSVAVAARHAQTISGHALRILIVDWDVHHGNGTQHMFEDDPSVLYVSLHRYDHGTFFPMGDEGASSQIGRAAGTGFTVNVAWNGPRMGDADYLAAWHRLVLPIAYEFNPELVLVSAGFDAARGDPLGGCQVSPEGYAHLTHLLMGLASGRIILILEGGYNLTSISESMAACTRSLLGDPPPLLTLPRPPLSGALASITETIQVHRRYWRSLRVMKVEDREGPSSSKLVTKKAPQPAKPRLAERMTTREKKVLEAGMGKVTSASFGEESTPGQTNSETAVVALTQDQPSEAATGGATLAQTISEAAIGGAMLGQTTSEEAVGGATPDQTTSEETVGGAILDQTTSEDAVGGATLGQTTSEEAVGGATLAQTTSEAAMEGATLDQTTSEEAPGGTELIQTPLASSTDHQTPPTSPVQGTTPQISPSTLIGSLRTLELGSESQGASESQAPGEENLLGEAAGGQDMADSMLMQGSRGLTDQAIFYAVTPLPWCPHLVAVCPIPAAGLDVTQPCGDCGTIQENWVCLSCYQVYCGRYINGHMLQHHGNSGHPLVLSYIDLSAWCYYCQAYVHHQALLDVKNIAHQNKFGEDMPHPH
Kind of series: Inhibition of full length N-terminal GST-tagged human HDAC6 expressed in baculovirus expression system using ZMAL as substrate incubated for 90 mins by fluorescence assay.

Chain of Histone deacetylase 1 (Q13547 whole entry): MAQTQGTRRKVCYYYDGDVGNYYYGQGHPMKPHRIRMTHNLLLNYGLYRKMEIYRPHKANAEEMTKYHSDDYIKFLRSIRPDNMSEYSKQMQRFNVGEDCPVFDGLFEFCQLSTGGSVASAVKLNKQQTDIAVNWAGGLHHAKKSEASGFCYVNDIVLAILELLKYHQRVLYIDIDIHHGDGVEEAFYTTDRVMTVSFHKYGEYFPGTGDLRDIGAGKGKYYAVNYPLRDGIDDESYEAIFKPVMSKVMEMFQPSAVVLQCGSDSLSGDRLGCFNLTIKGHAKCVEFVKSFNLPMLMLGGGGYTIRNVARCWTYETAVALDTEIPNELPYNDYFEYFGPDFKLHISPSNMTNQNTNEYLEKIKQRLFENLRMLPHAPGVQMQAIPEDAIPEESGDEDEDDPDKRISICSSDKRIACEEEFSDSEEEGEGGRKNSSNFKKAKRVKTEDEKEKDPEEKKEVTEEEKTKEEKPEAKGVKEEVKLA

Turning to `O=C(NO)c1ccc(CN2CCC3(CC2)CN(Cc2ccccc2)c2ccccc23)cc1`, the 50% inhibitory concentration (IC50) came out at 12.8 µM in the series on KYSE-520 cell line [1]; 6.5 µM against Histone deacetylase 1; 18 µM in [7]; 5.56 µM in the series with OE33; 19 µM in the series with Ca9-22; 0.561 µM in series [11]. Moreover, the Activity entry is given as “Non-Toxic” in series [2], “Toxic” in [4], “Non-Toxic” in series [5] and “Toxic” in series [10]. The result in the series on NB-4 [3], in the series with KYSE-520 cell line [6], in the series on NB-4 [9] and in the series on U-937 was Active. Further, the Ratio IC50 in the series listed under Homo sapiens turned out to be 12. Besides, the CC50 at 24 h in [8] amounted to 40 µM.

One may read the IC50 as the concentration at which inhibition is half-maximal.
